Assay results reported in US20250382574A1, “CELL CULTURE METHOD” (Takeda Pharmaceutical Company Limited, priority 2022, published 2025).
Like-named read-outs stand apart in the source and are kept apart here.

What was measured:
[1] = tested on: iPS cell-derived CAR-T cells; assay: Proliferation test, ITS-X and taurine added to 0.3 mM boric acid-containing serum-free medium; assay type: cell-based; settings: for viability (%): serum-free expansion medium, boric acid 0.3 mM
Experimental: A total of five types of expansion culture media were prepared: Advanced DMEM/F12 medium (Thermo Fisher) containing additives shown in the “expansion culture medium” column in Table 4, and said medium further added with either 0.3 mM boric acid (Sigma-Aldrich), 0.3 mM boric acid and 1×ITS-X ((Insulin-Transferrin-Selenium-Ethanolamine Supplements) Gibco), 0.3 mM boric acid and 1×ITS-X and 1 mM taurine (Sigma-Aldrich), or 0.3 mM boric acid and 1×ITS-X and 3 mM taurine (medium supplemented with only additives in Table 4, medium supplemented with additives in Table 4+0.3 mM boric acid, medium supplemented with additives in Table 4+0.3 mM boric acid+ITS-X, medium supplemented with additives in Table 4+0.3 mM boric acid+ITS-X+1 mM taurine, medium supplemented with additives in Table 4+0.3 mM boric acid+ITS-X+3 mM taurine). After 3 days of activation culture, the cells were collected from the T225 flask and suspended in each of the five types of expansion culture media at 40,000 cells/mL, and cultured under 5% CO2/37° C. using G-Rex (registered trademark) 10M (Wilson Wolf). Then, on the fifth day of culture, some of the cells were recovered from G-Rex (registered trademark) 10M and the cells were counted, and the medium was replaced with the respective medium. On the sixth day of culture, some of the cells were recovered from G-Rex (registered trademark) 10M and the cells were counted. On the 7th and 10th days of culture, some of the cells were recovered from the plate, counted, and seeded onto a G-Rex (registered trademark) 24-well plate (Wilson Wolf) containing each medium at 50,000 cells/mL. On the 12th and 14th days of culture, some of the cells were similarly collected from the G-Rex (registered trademark) 24-well plate, counted, and the medium was replaced with each medium.
In the expansion culture of item 5 in Example 4, the cell number and viability of iPS cell-derived CAR-T cells were measured on days 3, 5, 6, 7, 10, 12, and 14 of culture.

[2] = tested on: human-derived primary T cell-derived CAR-T cells; settings: boric acid 0.3 mM added to serum-free medium (BM220720); FIG. 5
[3] = tested on: iPS cell-derived CAR-T cells; settings: boric acid concentration range of 0.2 mM to 0.9 mM, serum-free medium; FIG. 3
Experimental: After 3 days of activation culture, the cells were collected from the T225 flask and suspended in each of the five types of expansion culture media at 50,000 cells/mL, and cultured under 5% CO2/37° C. using G-Rex (registered trademark) 24-well plate (Wilson Wolf). Then, on the fifth day of culture, some of the cells were recovered from G-Rex (registered trademark) 24-well plate and the cells were counted, and the medium was replaced with the respective medium. On the 7th day of culture, the cells were counted by a similar method, seeded in a fresh G-Rex (registered trademark) 24-well plate at 50,000 cells/mL, and cultured in each medium. On the 10th and 12th days of culture, some of the cells were similarly collected from the plate, counted, and the medium was replaced with each medium.

[4] = tested on: iPS cell-derived CAR-T cells; settings: 0.3 mM boric acid added to 1% FBS-containing medium; FIG. 1
Source text: Then, on the fifth day of culture, some of the cells were recovered from G-Rex (registered trademark) 10M and the cells were counted, and the medium was replaced with the respective medium. On the sixth day of culture, some of the cells were recovered from G-Rex (registered trademark) 10M and the cells were counted. […] On the 12th and 14th days of culture, some of the cells were similarly collected from the G-Rex (registered trademark) 24-well plate, counted, and the medium was replaced with each medium.

[5] = tested on: iPS cell-derived CAR-T cells; settings: 0.3 mM boric acid added to serum-free medium; FIG. 2
Experimental: After 3 days of activation culture, the cells were collected from the T225 flask and suspended in each of the two types of expansion culture media at 40,000 cells/mL, and cultured under 5% CO2/37° C. using G-Rex (registered trademark) 10M (Wilson Wolf). Then, on the fifth day of culture, some of the cells were collected from G-Rex (registered trademark) 10M and counted, and the medium was replaced with each medium. On the 7th and 10th days of culture, the cells were counted by a similar method, seeded in a G-Rex (registered trademark) 24-well plate at 50, 000 cells/mL, and cultured in each medium. On the 12th and 14th days of culture, some of the cells were similarly collected from the plate, counted, and the medium was replaced with each medium.

Row | SMILES | viability (%) ([1]; Day 5) | viability (%) ([1]; Day 6) | viability (%) ([1]; Day 7) | viability (%) ([1]; Day 10) | viability (%) ([1]; Day 12) | viability (%) ([1]; Day 14) | proliferation (cell proliferation fold from day 0 of expansion culture) [2] | cell viability [3] | proliferation (cell proliferation fold from day 0 of expansion culture) [4] | proliferation (cell proliferation fold from day 0 of expansion culture) [5] | maximum difference (%) in viability between (3): without addition of Taurine and (4) or (5): with addition of Taurine ([1]; Day 5) | maximum difference (%) in viability between (3): without addition of Taurine and (4) or (5): with addition of Taurine ([1]; Day 6) | maximum difference (%) in viability between (3): without addition of Taurine and (4) or (5): with addition of Taurine ([1]; Day 7) | maximum difference (%) in viability between (3): without addition of Taurine and (4) or (5): with addition of Taurine ([1]; Day 10) | maximum difference (%) in viability between (3): without addition of Taurine and (4) or (5): with addition of Taurine ([1]; Day 12) | maximum difference (%) in viability between (3): without addition of Taurine and (4) or (5): with addition of Taurine ([1]; Day 14)
1 | OB(O)O [Boric acid, boric acid] | 88.7% | 88.6% | 87.5% | 90.3% | 90.4% | 88.3% | promoted | not influenced | promoted | promoted | – | – | – | – | – | –
2 | NCCS(=O)(=O)O [Taurine, taurine] | – | – | – | – | – | – | – | – | – | – | 2.9% | 1.6% | 2.5% | 3.7% | 1.9% | 1.3%
